Data on six compounds can be found in US12297189B2, “Crystalline forms of a 4-pyrimidinesulfamide derivative aprocitentan” (IDORSIA PHARMACEUTICALS LTD, priority 2017, dated 2025).

For series [1], the system named is conscious, male hypertensive Dahl salt-sensitive rats. Put plainly: Acute effects on MAP and HR by telemetry in Dahl salt-sensitive rats. Type of series: in vivo, rat. The note with it: Dahl-S rats, doses 0.3-300 mg/kg. The protocol:
The acute effects of COMPOUND on blood pressure, in particular on mean arterial blood pressure (hereafter “MAP”), and heart rate (hereafter “HR”) were evaluated by means of telemetry in conscious, male hypertensive Dahl salt-sensitive rats (hereafter “Dahl-S rats”-see details about this model in Rapp, Hypertension (1982), 4, 753-763). Elevated blood pressure is induced in Dahl-S rats by providing 1% sodium chloride in drinking water. Groups of 6-7 Dahl-S rats were used for the vehicle (7.5% gelatin aquous solution) and each dose of COMPOUND tested (0.3, 1, 3, 10, 30, 100, and 300 mg/kg). Effects of COMPOUND on HR and MAP were calculated for individual animals relative to the 24 h period before administering. The results obtained regarding MAP (maximal MAP decrease observed over 6 consecutive hours) are summarised in FIG. 9 (data are presented as mean±standard error of the mean). […] In contrast to MAP, HR was not affected.

The test system of series [2] is conscious, male spontaneaously hypertensive rats. Put plainly: Acute effects on MAP and HR by telemetry in spontaneously hypertensive rats. The note with it: SHRs, doses 1-300 mg/kg. It counts as in vivo, rat. The method, then: The acute effects of COMPOUND on blood pressure, in particular on mean arterial blood pressure (hereafter “MAP”), and heart rate (hereafter “HR”) were evaluated by means of telemetry in conscious, male spontancaously hypertensive rats (hereafter “SHRs”—see details about this model in Atanur et al., Genome Res. (2010), 20, 791-803). Groups of 4-6 SHRs were used for the vehicle (7.5% gelatin aquous solution) and each dose of COMPOUND tested (1, 3, 10, 30, 100, and 300 mg/kg). Effects of COMPOUND on HR and MAP were calculated for individual animals relative to the 24 h period before administering. The results obtained regarding MAP (maximal MAP decrease observed over 6 consecutive hours) are summarised in FIG. 11 (data are presented as mean±standard error of the mean). […] In contrast to MAP, HR was not affected.

For another series, the system named is male Wistar rats. The experiment in a line: Effect on fluid retention (haematocrit) in Wistar rats. The note with it: single oral dose 1-30 mg/kg, 24 hours after administration. It counts as in vivo, rat. The protocol: A decrease in haematocrit (Hct) or haemoglobin occurs secondary to an increase in plasma volume and can be used as a marker of fluid retention. A single oral dose of aprocitentan (1-30 mg/kg) or vehicle (gelatin) was administered by gavage to male Wistar rats. Twenty-four hours after administration, sublingual blood was sampled under isoflurane-induced anesthesia. Haematocrit was measured using a hematology analyser.

Series [3] relates to conscious, male hypertensive deoxycorticosterone acetate salt rats. The experiment in a line: Chronic effects of repeated oral administration in DOCA-salt rats. Type of series: in vivo, rat. Particulars: oral 1, 10 and 100 mg/kg/day for 4 weeks. The method, then:
The chronic effects of repeated administrations of doses of 1, 10 and 100 mg/kg/day of COMPOUND, in particular mean arterial blood pressure (hereafter “MAP”), and heart rate (hereafter “HR”), were evaluated in conscious, male hypertensive deoxycorticosterone acetate salt rats (hereafter “DOCA-salt rats”—see details about this model in Gavras et al., Circ. Res. (1975), 36, 300-309). In the DOCA-salt rats, hypertension is induced by the combination of unilateral nephrectomy, implantation of pellets of the mineralocorticoid analog DOCA, and provision of 1% sodium chloride in drinking water. The results of the DOCA-salt rats treated with COMPOUND were compared to those obtained for Wistar rats or for DOCA-salt rats that received only the vehicle (4% gelatin aquous solution). • a) The results obtained regarding MAP are summarised in FIG. 16 wherein each data point is presented as a 24-hour mean. 6 rats were used for each of the 5 test groups (Wistar control rats [bottom line], DOCA-salt control rats [2nd line from top at day 28] and DOCA-salt rats receiving repeated administrations of doses of 1 mg/kg/day [top line at day 28], 10 mg/kg/day [3rd line from top at day 28] and 100 mg/kg/day [4th line from top at day 28] of COMPOUND).

For series [4] the test system is unchanged. The experiment in a line: Acute effects on MAP and HR by telemetry in DOCA-salt rats. Particulars: doses 0.3-300 mg/kg. It counts as in vivo, rat. The method, then: The acute effects of COMPOUND on blood pressure, in particular on mean arterial blood pressure (hereafter “MAP”), and heart rate (hereafter “HR”) were evaluated by means of telemetry in conscious, male hypertensive deoxycorticosterone acetate salt rats (hereafter “DOCA-salt rats”—see details about this model in Gavras et al., Circ. Res. (1975), 36, 300-309). In the DOCA-salt rats, hypertension is induced by the combination of unilateral nephrectomy, implantation of pellets of the mineralocorticoid analog DOCA, and provision of 1% sodium chloride in drinking water. Groups of 6-11 DOCA-salt rats were used for the vehicle (7.5% gelatin aquous solution) and each dose of COMPOUND tested (0.3, 1, 3, 10, 30, 100, and 300 mg/kg). Effects of COMPOUND on HR and MAP were calculated for individual animals relative to the 24 h period before administering. The results obtained regarding MAP (maximal MAP decrease observed over 6 consecutive hours) are summarised in FIG. 10 (data are presented as mean±standard error of the mean). […] In contrast to MAP, HR was not affected.

For series [5], the system named is subjects having essential hypertension. The note with it: phase 2 trial, cited from earlier work.
Series [6] is described as follows: Storage at room temperature of crystalline forms (XRPD, HPLC control). It counts as physicochemical. Particulars: 20-25° C. The protocol: All XRPD patterns for the solid forms described herein have been obtained as described hereafter. X-ray powder diffraction patterns were collected on a Bruker D8 Advance X-ray diffractometer equipped with a Lynxeye detector operated with CuKα-radiation in reflection mode (coupled two Theta/Theta). Typically, the X-ray tube was run at of 40 kV/40 mA. A step size of 0.02° (2θ) and a step time of 76.8 see over a scanning range of 3-500 in 2θ were applied. The divergence slit was set to fixed 0.3. Powders were slightly pressed into a silicon single crystal sample holder with depth of 0.5 mm and samples were rotated in their own plane during the measurement. Diffraction data are reported using combined Cu Kα1 and Kα2 radiation, without Kα2 stripping. The accuracy of the 2θ values as provided herein is in the range of +/−0.1-0.2° as it is generally the case for conventionally recorded X-ray powder diffraction patterns. A sample of Form A crystals of the COMPOUND (as obtained according to Example 1 above) has been stored at a temperature of 20-25° C. at 92% relative humidity for 2 months. […] The same result was obtained after storage for 8 weeks under the above coditions. […] A sample of Form B crystals of a dichloromethane solvate of the COMPOUND (as obtained according to Example 2 above) has been stored in a closed vial (20 mg of Form B crystals being placed in a closed 4 mL vial) at a temperature of 20-25° C. for about 3 weeks. […] A sample of Form K crystals of a dimethylsulfoxide solvate of the COMPOUND (as obtained according to Example 7 above) has been stored in a closed vial (20 mg of Form K crystals being placed in a closed 4 mL vial) at a temperature of 20-25° C. for about 3 weeks.

A short description of series [7]: Hygroscopicity by gravimetric vapour sorption (GVS). It counts as physicochemical. Particulars: 25° C., mass change between 40% and 80% RH, first adsorption scan. The method, then: Measurements are performed on a multi sample instrument SPS-100n (Projekt Messtechnik, Ulm, Germany) operated in stepping mode at 25° C. The sample is allowed to equilibrate at 40% RH before starting a pre-defined humidity program (40-0-95-0-95-40% RH, steps of 5% ΔRH and with a maximal equilibration time of 24 hours per step are applied. About 20 to 30 mg of each sample is used.
The mass change between 40% relative humidity and 80% relative humidity in the first adsorption scan is considered.
Form A e.g. as obtained from Example 1 is considered to be non-hygroscopic as determined by gravimetric vapor sorption (GVS) (see FIG. 19).

A further series deals with patients with diabetes. Particulars: cited from earlier work.
The next series concerns patients with rHT. Particulars: 14 week phase 3 trial; cited from earlier work.

Structures are written as SMILES.

Take `NS(=O)(=O)Nc1ncnc(OCCOc2ncc(Br)cn2)c1-c1ccc(Br)cc1` [COMPOUND, {5-(4-bromo-phenyl)-6-[2-(5-bromo-pyrimidin-2-yloxy)-ethoxy]-pyrimidin-4-yl}-sulfamide]: the “effect on heart rate (HR)” value is reported as “not affected” in series [1], “not affected” in [2], “without changing HR” in series [3] and “not affected” in series [4]. Besides, the “haematocrit (Hct), marker of fluid retention” value in the series on male Wistar rats is listed as “did not impact on haematocrit”. For the same compound, the “effect on DOCA-salt-induced increase in MAP” value in series [3] is “dose-dependently attenuated the DOCA-salt-induced increase in MAP”. Also, the body weight entry in series [5] (at higher doses) is recorded as “increased body weight at higher doses”. Also, the “cases of peripheral edema” value in [5] (at higher doses) is given as “four”. Further, the “control of blood pressure” value in series [5] (essential hypertension, monotherapy) was “may result in efficacious control of blood pressure”. In series [5], the hemoglobin concentration result is recorded as “dose related decrease”.

`NS(=O)(=O)Nc1ncnc(OCCOc2ncc(Br)cn2)c1-c1ccc(Br)cc1` [Form A, {5-(4-bromo-phenyl)-6-[2-(5-bromo-pyrimidin-2-yloxy)-ethoxy]-pyrimidin-4-yl}-sulfamide]: the “solid form by X-ray powder diffraction after storage” value in [6] (92% relative humidity, 2 months) is reported as “still consisting only in Form A crystals”. Moreover, the “degradation by HPLC control (peak area %) after storage” value in series [6] (92% relative humidity, 8 weeks) was “no significant degradation”. Moreover, the “hygroscopicity (GVS)” value in [7] is reported as “non-hygroscopic”.

With `NS(=O)(=O)Nc1ncnc(OCCOc2ncc(Br)cn2)c1-c1ccc(Br)cc1` [Form B, {5-(4-bromo-phenyl)-6-[2-(5-bromo-pyrimidin-2-yloxy)-ethoxy]-pyrimidin-4-yl}-sulfamide], the “solid form by X-ray powder diffraction after storage” value in series [6] (closed vial, about 3 weeks) is listed as “transformed into Form A crystals”.

Regarding `NS(=O)(=O)Nc1ncnc(OCCOc2ncc(Br)cn2)c1-c1ccc(Br)cc1` [Form C, {5-(4-bromo-phenyl)-6-[2-(5-bromo-pyrimidin-2-yloxy)-ethoxy]-pyrimidin-4-yl}-sulfamide], the “hygroscopicity (GVS)” value in series [7] is “slightly hygroscopic (increase in mass is less than 2% and equal to or greater than 0.2% mass/mass)”.

For the compound `COc1ccccc1Oc1c(NS(=O)(=O)c2ccc(C)cn2)nc(-c2ccncc2)nc1OC` [avosentan], the “treatment effect (reduction of proteinuria)” value with patients with diabetes was “showed significant treatment effect”. The “discontinuation of trial medications due to adverse events” value in the series with patients with diabetes (predominantly fluid overload and congestive heart failure) is “significantly increased discontinuation”.

As for `COc1cc(OC)nc(O[C@H](C(=O)O)C(OC)(c2ccccc2)c2ccccc2)n1` [darusentan], in the series with patients with rHT, the “withdrawal because of adverse events as compared with placebo” value is “More patients withdrew”.
